{"source": "patent US20220362174A1", "about": "“Use of R-enantiomer Beta2-agonists for prevent and treatment of pulmonary inflammation and inflammatory remodeling for reduced adverse effects” (priority 2019, published 2022)", "type_in_all_cases": "cell-based", "key": {"[1]": {"test_system": "LPS-induced RAW264.7 cells", "experiment": "NO production (DAF-FM DA probe, Griess assay)", "details": "treatment with ICI-118551 in (R)-salbutamol/LPS cells", "method": "(§1) Macrophages were treated without or with (R)/(S)-salbutamol for 1 h prior to LPS stimulation and subsequently incubated for 12 h. […] The fluorescence of the oxidized product (2′,7′-dichlorofluorescein, DCF) was assessed using an LSM710 Laser Scanning Confocal Microscope (Carl Zeiss, Jena, Germany). The concentration of NO in the culture supernatant was measured by assaying the concentrations of nitrite (a stable NO breakdown product) using the Griess assay (Beyotime, Shanghai, China), according to the manufacturer's instructions. The intracellular NO level was detected using the NO-sensitive fluorescence probe DAF-FM DA (Sigma, St. Louis, Mo., USA) (24). Cells were labeled with DAF-FM DA (10 μM) at 37° C. for 30 min and were gently washed three times with PBS. Fluorescence was detected using a LSM710 Laser Scanning Confocal Microscope (Scale bars, 100 μm) (Carl Zeiss, Jena, Germany).\n(§2) In addition, the concentration of NO in the culture supernatant was measured by assaying the concentrations of nitrite (a stable NO breakdown product) using the Griess assay. […] To investigate (R)-salbutamol role on the level of iNOS, the mRNA and protein levels of iNOS were determined."}, "[2]": {"test_system": "LPS-induced macrophages RAW264.7 cells", "experiment": "Ratio of GSH/GSSG", "excerpt": "The ratio of GSH to GSSG is a marker of oxidative stress."}, "[3]": {"test_system": "LPS-induced RAW264.7 cells", "experiment": "M1/M2 macrophage polarization by flow cytometry", "details": "pretreated with (R)-salbutamol following incubation with ICI-118551, LPS", "method": "as §1\nMacrophages M1 (F4/80+/CD11c+/CD206−) and M2 (F4/80+/CD11c−/CD206+) polarization were analyzed using flow cytometry."}, "iNOS": {"test_system": "iNOS", "experiment": "iNOS mRNA and protein levels", "method": "as §2"}, "[4]": {"test_system": "LPS-induced RAW264.7 cells", "experiment": "Seahorse analysis of OCR and ECAR", "method": "as §1\nMacrophage activation elicited different metabolic profiles. LPS-induced macrophages adopted glycolytic metabolic profiles. This invention disclosed a β2 adrenergic receptor mediated Warburg metabolism (aerobic glycolysis) of in LPS treated macrophages. The OCR and ECAR were measured using an extracellular flux analyzer. […] ECAR is a measurement extracellular acidification rate, an indication of cellular glycolytic rate."}, "[5]": {"test_system": "LPS-induced RAW264.7 cells", "experiment": "mRNA expression of TNF-α, IL-1β and MCP-1 by quantitative real-time PCR", "details": "ICI-118551-treated cells compared to the control group", "method": "as §1\nTo examine the mRNA expression of TNF-α, IL-1β and MCP-1, quantitative real-time PCR was performed. Consistent with the cytokine expression study, the mRNA expression of TNF-α was increased by 2.26-fold in the LPS-induced group compared to the control group (FIG. 8D). The mRNA expression of IL-1β and MCP-1 increased by 12.74-fold (FIG. 8E) and 3.1-fold, respectively, in the LPS-induced group compared to the control group (FIG. 8F)."}}, "data": [{"smiles": "Cc1ccc(OCC(O)C(C)NC(C)C)c2c1CCC2", "note": "(centres unmarked) [ICI-118551, reference compound]", "values": [{"measurement": "NO levels", "setting": "[1]", "result": "increased NO levels"}, {"measurement": "effect of (R)-salbutamol on GSH/GSSG with ICI-118551", "setting": "[2]", "result": "blocked"}, {"measurement": "percentage of M1 macrophages", "setting": "[3]", "result": 55.8, "unit": "%"}, {"measurement": "effects of (R)-salbutamol on iNOS when adding ICI-118551", "setting": "iNOS", "result": "blocked"}, {"measurement": "metabolism shift by (R)-salbutamol with ICI-118551 treatment", "setting": "[4]", "result": "blocked"}, {"measurement": "mRNA expression of IL-1β, increase", "setting": "[5]", "result": 12.41, "unit": "fold"}, {"measurement": "mRNA expression of MCP-1, increase", "setting": "[5]", "result": 3.36, "unit": "fold"}, {"measurement": "mRNA expression of TNF-α, increase", "setting": "[5]", "result": 2.28, "unit": "fold"}]}]}
